Data: patent US20240383856A1 (Zedira GmbH, priority 2021, published 2024)

How the values were obtained:
[1] = logD by shake flask method (octanol / PBS pH 7.4, HPLC); type: physicochemical; conditions: octanol / PBS pH 7.4, shake flask
How it was run: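 LogD obtained by HPLC measurement of how the compound distributes between PBS (pH 7.4) and octanol in a shake-flask experiment.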

[2] = Caco-2 permeability assay (CacoReady kit); type: in vitro ADME; conditions: human, Caco-2, Caco-2 barrier, CacoReady kit; above 1×10^−6 cm/s classified as permeable
How it was run: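 Compounds are tested on pre-formed Caco-2 barriers supplied as a ready-to-use kit, following the kit protocol, and the Papp value is derived to estimate intestinal absorption.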

[3] = target: T1, recombinant human transglutaminase 2 (Homo sapiens, UniProt P21980); assay: Transglutaminase assay (DCC-assay): incorporation of dansylcadaverine into dimethylcasein; type: biochemical; conditions: recombinant human TG2 10 nM; dansylcadaverine incorporation into dimethylcasein; read-out: IC50 TG2
T1 construct: purchased Zedira T022
T1 sequence (P21980 1-687): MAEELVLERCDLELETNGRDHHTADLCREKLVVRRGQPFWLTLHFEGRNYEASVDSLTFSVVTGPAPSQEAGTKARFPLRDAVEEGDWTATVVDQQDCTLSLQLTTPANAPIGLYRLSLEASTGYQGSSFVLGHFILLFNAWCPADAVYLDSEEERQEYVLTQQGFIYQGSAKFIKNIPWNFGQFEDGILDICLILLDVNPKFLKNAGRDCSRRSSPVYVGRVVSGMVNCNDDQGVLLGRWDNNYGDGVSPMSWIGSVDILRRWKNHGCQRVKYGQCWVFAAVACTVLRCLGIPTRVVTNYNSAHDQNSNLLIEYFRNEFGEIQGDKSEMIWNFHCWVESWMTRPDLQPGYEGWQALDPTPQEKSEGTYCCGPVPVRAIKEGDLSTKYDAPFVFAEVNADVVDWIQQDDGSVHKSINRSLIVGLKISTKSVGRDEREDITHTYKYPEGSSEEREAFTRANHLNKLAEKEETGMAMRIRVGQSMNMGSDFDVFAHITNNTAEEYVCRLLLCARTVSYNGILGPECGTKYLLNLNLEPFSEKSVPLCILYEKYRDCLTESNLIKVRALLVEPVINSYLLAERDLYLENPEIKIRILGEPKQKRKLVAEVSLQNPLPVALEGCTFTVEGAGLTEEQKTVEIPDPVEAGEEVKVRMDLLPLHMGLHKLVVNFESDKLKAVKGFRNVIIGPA
How it was run: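 IC50 is the inhibitor level that blocks 50% of initial activity. Activity is the fluorescence slope (λex 330, λem 500 nm) between 20 and 30 min of a 37 °C run, relative to a 2% DMSO control. The enzyme is recombinant human tissue transglutaminase, 10 nM final, tested against a 1:2 inhibitor dilution series in a pH 8.0 mix with 10 mM CaCl2, 10 mM glutathione, 16.7 µM dansylcadaverine and 4 µM N,N-dimethylcasein.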

Structure (SMILES)	logD [1]	Papp [2] [×10⁻⁶ cm/s]	IC50 [3] [nM]
CNC(=O)C(=O)CC[C@H](NC(=O)c1nc[nH]n1)C(=O)Nc1cccn(CC(=O)NC2C3CC4CC(C3)CC2C4)c1=O (stereo partly drawn) [II-134, (S)-N1-(1-(2-(2-adamantylamino)-2-oxoethyl)-2-oxo-1,2-dihydropyridin-3-yl)-N6-methyl-5-oxo-2-(1H-1,2,4-triazole-3-carboxamido)hexanediamide]	< 1	< 1	400 to 2500
CNC(=O)C(=O)CC[C@H](NC(=O)c1ncn(C)n1)C(=O)Nc1cccn(CC(=O)NC2C3CC4CC(C3)CC2C4)c1=O (stereo partly drawn) [II-135, (S)-N1-(1-(2-(2-adamantylamino)-2-oxoethyl)-2-oxo-1,2-dihydropyridin-3-yl)-N6-methyl-2-(1-methyl-1H-1,2,4-triazole-3-carboxamido)-5-oxohexanediamide]	< 1	1 to 10	40 to 400
CNC(=O)C(=O)CC[C@H](NC(=O)c1snnc1C)C(=O)Nc1cccn(CC(=O)N[C@H]2C[C@H]3CC[C@]2(C)C3(C)C)c1=O [II-161, (S)-N1-methyl-5-(4-methyl-1,2,3-thiadiazole-5-carboxamido)-2-oxo-N6-(2-oxo-1-(2-oxo-2-((1R,2S,4R)-1,7,7-trimethylbicyclo[2.2.1]heptan-2-ylamino)ethyl)-1,2-dihydropyridin-3-yl)hexanediamide]	< 1	< 1	40 to 400
CNC(=O)C(=O)CC[C@H](NC(=O)c1nncs1)C(=O)Nc1cccn(CC(=O)NC23CC(C2)C3)c1=O [II-200, (S)-N1-(1-(2-(bicyclo[1.1.1]pentan-1-ylamino)-2-oxoethyl)-2-oxo-1,2-dihydropyridin-3-yl)-N6-methyl-5-oxo-2-(1,3,4-thiadiazole-2-carboxamido)hexanediamide]	< 1	< 1	40 to 400
Cc1nc2ncccc2cc1C(=O)N[C@@H](CCC(=O)C(=O)NC1CCCCC1)C(=O)Nc1cccn(CC(=O)NC23CC(C2)C3)c1=O [II-184, (S)-N1-(1-(2-(bicyclo[1.1.1]pentan-1-ylamino)-2-oxoethyl)-2-oxo-1,2-dihydropyridin-3-yl)-N6-cyclohexyl-2-(2-methyl-1,8-naphthyridine-3-carboxamido)-5-oxohexanediamide]	1 to 3	< 1	400 to 2500
CNC(=O)C(=O)CC[C@H](NC(=O)c1cncc(C(=O)O)c1)C(=O)Nc1cccn(CC(=O)NC2C3CC4CC(C3)CC2C4)c1=O (stereo partly drawn) [II-64, (S)-5-(1-(1-(2-(2-adamantylamino)-2-oxoethyl)-2-oxo-1,2-dihydropyridin-3-ylamino)-6-(methylamino)-1,5,6-trioxohexan-2-ylcarbamoyl)nicotinic acid]	1 to 3	< 1	40 to 400
CNC(=O)C(=O)CC[C@H](NC(=O)c1coc(S(N)(=O)=O)c1)C(=O)Nc1cccn(CC(=O)NC2C3CC4CC2CC(NC(C)=O)(C4)C3)c1=O (stereo partly drawn) [II-193, (S)-N1-(1-(2-(1-acetylamino-4-aminoadamantane)-2-oxoethyl)-2-oxo-1,2-dihydropyridin-3-yl)-N6-methyl-5-oxo-2-(5-sulfamoylfuran-3-carboxamido)hexanediamide]	< 1	< 1	400 to 2500
CNC(=O)C(=O)CC[C@H](NC(=O)c1cc2ccc(N(C)C)cc2o1)C(=O)Nc1cccn(CC(=O)NC23CC(C2)C3)c1=O [II-190, (S)-N1-(1-(2-(bicyclo[1.1.1]pentan-1-ylamino)-2-oxoethyl)-2-oxo-1,2-dihydropyridin-3-yl)-2-(6-(dimethylamino)benzofuran-2-carboxamido)-N6-methyl-5-oxohexanediamide]	< 1	< 1	400 to 2500
CCc1nnsc1C(=O)N[C@@H](CCC(=O)C(=O)NC)C(=O)Nc1cccn(CC(=O)NC2C3CC4CC(C3)CC2C4)c1=O (stereo partly drawn) [II-204, (S)-2-(4-ethyl-1,2,3-thiadiazole-5-carboxamido)-N1-(1-(2-(2-adamantylamino)-2-oxoethyl)-2-oxo-1,2-dihydropyridin-3-yl)-N6-methyl-5-oxohexanediamide]	1 to 3	< 1	40 to 400

Further lines, results first:

logD [1]	Papp [2] [×10⁻⁶ cm/s]	IC50 [3] [nM]	Structure (SMILES)
1 to 3	1 to 10	40 to 400	CNC(=O)C(=O)CC[C@H](NC(=O)c1sc(C(F)(F)F)nc1C)C(=O)Nc1cccn(CC(=O)N[C@@H]2C[C@@H]3CC[C@H]2C3)c1=O [II-154, (S)-N1-(1-(2-((1S,2R,4R)-bicyclo[2.2.1]heptan-2-ylamino)-2-oxoethyl)-2-oxo-1,2-dihydropyridin-3-yl)-N6-methyl-2-(4-methyl-2-(trifluoromethyl)thiazole-5-carboxamido)-5-oxohexanediamide]
< 1	1 to 10	< 40	NC(=O)C(=O)CC[C@H](NC(=O)c1cc2ccccc2o1)C(=O)Nc1cccn(CC(=O)N[C@@H]2C[C@H]3CC[C@@H]2C3)c1=O [II-146, (S)-2-(benzofuran-2-carboxamido)-N1-(1-(2-((1R,2R,4S)-bicyclo[2.2.1]heptan-2-ylamino)-2-oxoethyl)-2-oxo-1,2-dihydropyridin-3-yl)-5-oxohexanediamide]
1 to 3	1 to 10	40 to 400	CNC(=O)C(=O)CC[C@H](NC(=O)c1oc2ccccc2c1C)C(=O)Nc1cccn(CC(=O)NC23CC4CC5C2C[C@@H]2C[C@H]5C(C4)[C@H]3C2)c1=O (stereo in doubt) [II-104, (S)-N1-(1-(2-(diamantane-1-amino)-2-oxoethyl)-2-oxo-1,2-dihydropyridin-3-yl)-N6-methyl-2-(3-methylbenzofuran-2-carboxamido)-5-oxohexanediamide]
< 1	< 1	40 to 400	CNC(=O)C(=O)CC[C@H](NC(=O)c1cncn1C)C(=O)Nc1cccn(CC(=O)NC23CC4CC(CC(C4)C2)C3)c1=O [II-207, (S)-N1-(1-(2-(1-adamantylamino)-2-oxoethyl)-2-oxo-1,2-dihydropyridin-3-yl)-N6-methyl-2-(1-methyl-1H-imidazole-5-carboxamido)-5-oxohexanediamide]
< 1	< 1	40 to 400	CNC(=O)C(=O)CC[C@H](NC(=O)c1ncns1)C(=O)Nc1cccn(CC(=O)NC23CC(C2)C3)c1=O [II-199, (S)-N1-(1-(2-(bicyclo[1.1.1]pentan-1-ylamino)-2-oxoethyl)-2-oxo-1,2-dihydropyridin-3-yl)-N6-methyl-5-oxo-2-(1,2,4-thiadiazole-5-carboxamido)hexanediamide]
< 1	< 1	40 to 400	Cn1nncc1C(=O)N[C@@H](CCC(=O)C(N)=O)C(=O)Nc1cccn(CC(=O)NC2C3CC4CC(C3)CC2C4)c1=O (stereo partly drawn) [II-127, (S)-N1-(1-(2-(2-adamantylamino)-2-oxoethyl)-2-oxo-1,2-dihydropyridin-3-yl)-2-(1-methyl-1H-1,2,3-triazole-5-carboxamido)-5-oxohexanediamide]
1 to 3	1 to 10	40 to 400	CNC(=O)C(=O)CC[C@H](NC(=O)c1oc2ccccc2c1C)C(=O)Nc1cccn(CC(=O)NC2CC3C=CC2C3)c1=O (stereo partly drawn) [II-97, (S)-N1-(1-(2-(bicyclo[2.2.1]hept-5-en-2-ylamino)-2-oxoethyl)-2-oxo-1,2-dihydropyridin-3-yl)-N6-methyl-2-(3-methylbenzofuran-2-carboxamido)-5-oxohexanediamide]
1 to 3	1 to 10	< 40	CNC(=O)C(=O)CC[C@H](NC(=O)c1oc2ccccc2c1C)C(=O)Nc1cccn(CC(=O)NC2C3CC4CC2CC(Cl)(C4)C3)c1=O (stereo partly drawn) [II-70, (S)-N1-(1-(2-(5-chloroadamantane-2-amino)-2-oxoethyl)-2-oxo-1,2-dihydropyridin-3-yl)-N6-methyl-2-(3-methylbenzofuran-2-carboxamido)-5-oxohexanediamide]
3 to 5	1 to 10	< 40	CNC(=O)C(=O)CC[C@H](NC(=O)c1cc2ccccc2s1)C(=O)Nc1cccn(CC(=O)NC2C3CC4CC(C3)CC2C4)c1=O (stereo partly drawn)
1 to 3	1 to 10	< 40	Cc1c(C(=O)N[C@@H](CCC(=O)C(N)=O)C(=O)Nc2cccn(CC(=O)NC3C4CC5CC(C4)CC3C5)c2=O)oc2ccccc12 (stereo partly drawn) [II-118, (S)-N1-(1-(2-(2-adamantylamino)-2-oxoethyl)-2-oxo-1,2-dihydropyridin-3-yl)-2-(3-methylbenzofuran-2-carboxamido)-5-oxohexanediamide]
